Results as given in US10947242B2, “[1,2,4]triazolo[1,5and#8208;A]pyrimidine compounds as PDE2 inhibitors” (Janssen Pharmaceutica NV, priority 2016, dated 2021).
Where two headings read alike, the source gives them in different places.

Tests used:
Format in all cases: biochemical
[1] = target: T1, Human recombinant PDE2A (hPDE2A) (Homo sapiens, UniProt O00408); assay: In vitro assay PDE2A (SPA, 3H-cGMP hydrolysis); conditions: for Emax: read-out: hPDE2A Emax
T1 construct: His tag (inferred from metal chelate purification); made in house; host or cells: Sf9 insect cells (baculovirus)
T1 sequence (O00408 whole entry): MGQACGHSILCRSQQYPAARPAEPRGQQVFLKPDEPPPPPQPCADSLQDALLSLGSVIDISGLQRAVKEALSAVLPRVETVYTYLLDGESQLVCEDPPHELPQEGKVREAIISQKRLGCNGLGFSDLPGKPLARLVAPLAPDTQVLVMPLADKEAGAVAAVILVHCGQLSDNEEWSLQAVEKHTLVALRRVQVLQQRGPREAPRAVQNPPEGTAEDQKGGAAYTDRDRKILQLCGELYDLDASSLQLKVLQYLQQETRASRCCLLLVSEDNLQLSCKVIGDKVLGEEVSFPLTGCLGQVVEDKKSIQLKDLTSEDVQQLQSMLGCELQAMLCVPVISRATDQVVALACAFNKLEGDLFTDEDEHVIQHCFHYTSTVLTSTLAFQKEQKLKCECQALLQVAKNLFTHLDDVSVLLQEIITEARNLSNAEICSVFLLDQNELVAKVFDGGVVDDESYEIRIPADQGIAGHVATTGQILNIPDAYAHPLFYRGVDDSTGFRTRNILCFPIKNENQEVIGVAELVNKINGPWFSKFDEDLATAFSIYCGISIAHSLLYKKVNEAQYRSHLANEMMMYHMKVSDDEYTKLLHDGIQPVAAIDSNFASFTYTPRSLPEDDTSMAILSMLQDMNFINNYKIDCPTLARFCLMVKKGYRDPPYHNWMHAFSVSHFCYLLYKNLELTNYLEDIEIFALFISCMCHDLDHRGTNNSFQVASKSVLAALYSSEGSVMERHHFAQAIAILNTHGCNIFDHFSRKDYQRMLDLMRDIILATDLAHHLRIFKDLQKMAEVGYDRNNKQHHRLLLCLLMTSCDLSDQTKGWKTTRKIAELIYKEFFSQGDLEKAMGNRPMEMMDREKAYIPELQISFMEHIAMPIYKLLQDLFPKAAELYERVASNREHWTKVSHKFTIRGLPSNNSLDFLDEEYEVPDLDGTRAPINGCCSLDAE

[2] = target: T2, Human recombinant PDE3A (hPDE3A) (Homo sapiens, UniProt Q14432); assay: In vitro assay PDE3A (SPA, 3H-cAMP hydrolysis); conditions: for IC50: hPDE3B pIC50; for Emax: read-out: hPDE3B Emax, read-out: Emax;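 on Emax: the method names PDE3A and the table heading PDE3B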
T2 construct: purchased Scottish Biomedical; host or cells: Sf9 insect cells
T2 sequence (Q14432 whole entry): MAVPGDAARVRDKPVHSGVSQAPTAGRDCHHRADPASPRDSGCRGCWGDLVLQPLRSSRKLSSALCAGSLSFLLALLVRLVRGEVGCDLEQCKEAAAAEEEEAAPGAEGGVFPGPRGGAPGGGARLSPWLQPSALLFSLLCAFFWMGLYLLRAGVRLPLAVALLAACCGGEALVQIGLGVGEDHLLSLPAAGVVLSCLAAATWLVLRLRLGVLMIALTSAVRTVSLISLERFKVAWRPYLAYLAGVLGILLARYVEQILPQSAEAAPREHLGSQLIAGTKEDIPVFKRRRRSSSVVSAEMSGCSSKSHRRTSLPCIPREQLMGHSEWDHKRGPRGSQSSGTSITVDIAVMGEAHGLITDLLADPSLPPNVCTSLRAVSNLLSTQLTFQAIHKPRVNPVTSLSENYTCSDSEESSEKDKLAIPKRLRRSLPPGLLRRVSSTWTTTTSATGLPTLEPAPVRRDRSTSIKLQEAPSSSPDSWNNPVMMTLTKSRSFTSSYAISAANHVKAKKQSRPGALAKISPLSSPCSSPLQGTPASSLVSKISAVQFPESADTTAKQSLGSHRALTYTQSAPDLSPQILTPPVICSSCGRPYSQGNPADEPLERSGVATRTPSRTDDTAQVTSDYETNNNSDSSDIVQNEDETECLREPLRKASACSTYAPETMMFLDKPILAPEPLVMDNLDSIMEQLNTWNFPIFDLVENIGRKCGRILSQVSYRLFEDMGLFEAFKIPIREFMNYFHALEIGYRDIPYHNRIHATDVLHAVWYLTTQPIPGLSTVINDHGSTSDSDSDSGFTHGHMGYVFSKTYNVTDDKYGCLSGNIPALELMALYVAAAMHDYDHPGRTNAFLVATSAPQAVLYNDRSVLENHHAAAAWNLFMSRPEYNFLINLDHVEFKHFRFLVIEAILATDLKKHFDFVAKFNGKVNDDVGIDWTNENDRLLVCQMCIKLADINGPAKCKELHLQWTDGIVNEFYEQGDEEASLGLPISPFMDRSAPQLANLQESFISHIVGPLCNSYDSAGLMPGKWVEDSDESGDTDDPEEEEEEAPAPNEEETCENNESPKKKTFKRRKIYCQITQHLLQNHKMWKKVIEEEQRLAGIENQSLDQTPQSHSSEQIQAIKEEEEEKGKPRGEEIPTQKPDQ
Procedure, shortened: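 Radiometric SPA measuring [3H]-cAMP hydrolysis (0.4 μM cAMP, 2.4 μCi/ml) over 60 min at room temperature, in Tris pH 7.8 buffer with MgCl2 and EGTA, 1% DMSO. Enzyme: recombinant human brain PDE3A expressed in Sf9 cells, used as partially purified lysate. Counts compared with enzyme-free blanks and vehicle controls.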

[3] = target: T3, Human recombinant PDE10A (hPDE10A) (Homo sapiens, UniProt Q9Y233); assay: In vitro assay PDE10A, human clone (SPA, 3H-cAMP hydrolysis); conditions: for Emax: read-out: hPDE10A2 or rPDE10A2 Emax
T3 construct: His tag (inferred from metal chelate purification); made in house; host or cells: Sf9 insect cells (baculovirus)
T3 sequence (Q9Y233 267-1055): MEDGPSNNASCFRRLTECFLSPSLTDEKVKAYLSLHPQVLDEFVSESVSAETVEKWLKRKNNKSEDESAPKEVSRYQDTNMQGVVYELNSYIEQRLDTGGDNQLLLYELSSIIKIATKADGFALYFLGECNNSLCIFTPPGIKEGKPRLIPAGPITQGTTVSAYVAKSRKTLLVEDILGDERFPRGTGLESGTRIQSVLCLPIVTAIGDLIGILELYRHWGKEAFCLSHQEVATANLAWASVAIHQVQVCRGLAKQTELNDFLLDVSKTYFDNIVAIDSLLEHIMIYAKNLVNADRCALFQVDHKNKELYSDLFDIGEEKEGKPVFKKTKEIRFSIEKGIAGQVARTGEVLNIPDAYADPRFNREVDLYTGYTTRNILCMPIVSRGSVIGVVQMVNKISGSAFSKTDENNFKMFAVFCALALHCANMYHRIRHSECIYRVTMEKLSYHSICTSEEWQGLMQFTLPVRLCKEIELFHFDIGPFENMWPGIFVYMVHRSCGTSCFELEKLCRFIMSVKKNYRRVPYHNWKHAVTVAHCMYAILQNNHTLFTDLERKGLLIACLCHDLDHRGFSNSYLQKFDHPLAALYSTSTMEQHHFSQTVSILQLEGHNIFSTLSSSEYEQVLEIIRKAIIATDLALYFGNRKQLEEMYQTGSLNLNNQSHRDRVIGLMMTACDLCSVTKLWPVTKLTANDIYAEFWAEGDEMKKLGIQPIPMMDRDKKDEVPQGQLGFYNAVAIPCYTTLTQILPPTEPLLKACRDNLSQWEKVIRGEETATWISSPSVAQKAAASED
Procedure, shortened: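 Hydrolysis of 3H-cAMP (60 nM cAMP, 0.008 μCi tracer) proceeded for 60 min at room temperature, with the product detected by SPA bead scintillation counting. The enzyme was hPDE10A from baculovirus-infected Sf9 cells in Tris pH 7.8 buffer with MgCl2 and EGTA, and compounds were at 1% DMSO final. Blanks lacked enzyme.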

[4] = read-out: hPDE2A pIC50 (converted)
[5] = human clone by default (no (r) mark)
[6] = human clone by default (no (r) mark), read-out: hPDE10A2 or rPDE10A2 pIC50 (converted)

Row | Structure (SMILES) | Emax [1] | IC50 [1, 4] | IC50 ([2]; read-out: pIC50 (converted)) | Emax [2] | Emax [3, 5] | IC50 [3, 6] | IC50 ([1]; hPDE2A pIC50) | IC50 [2] | IC50 ([3]; hPDE10A2 or rPDE10A2 pIC50, human clone by default (no (r) mark)) | hPDE10A2 or rPDE10A2 Emax [3, 5] | hPDE2A Emax [1] | hPDE3B Emax [2] | hPDE10A2 or rPDE10A2 pIC50 [3, 5]
1 | COc1nc(C2CC2)cc(C(=O)N2CC[C@@H](C)[C@H](c3cc(C(F)F)nc4ncnn34)C2)c1F [Compound 276] | 100% | 2.24 nM | 1290 nM | 93% | 98% | 166 nM |  |  |  |  |  |  | 
2 | Cc1nc(C2CC2)cc(C(=O)N2CC[C@@H](C)[C@H](c3cc(C(F)F)nc4ncnn34)C2)c1F [Compound 279] | 99% | 2.24 nM | 2820 nM | 86% | 96% | 316 nM |  |  |  |  |  |  | 
3 | Cc1cc(C(=O)N2[C@H]3CC[C@@H]2[C@H](c2cc(C(F)F)nc4ncnn24)CC3)cc(C(F)(F)F)n1 [Compound 285] | 65% | 6920 nM | > 10000 nM | 21% | 37% | > 10000 nM |  |  |  |  |  |  | 
4 | COCc1cc(C(=O)N2CC[C@@H](C)[C@H](c3cc(C(F)F)nc4ncnn34)C2)cc(C)n1 [Compound 288] | 101% | 2.69 nM | > 10000 nM | 44% | 93% | 417 nM |  |  |  |  |  |  | 
5 | Cc1cc2ccc(C(=O)N3CC[C@@H](C)[C@H](c4cc(C(F)F)nc5ncnn45)C3)cn2c1 [Compound 289] | 100% | 2.4 nM | 178 nM | 98% | 99% | 63.1 nM |  |  |  |  |  |  | 
6 | Cc1ccc2cc(C(=O)N3[C@H]4CC[C@H](c5cc(C(F)F)nc6ncnn56)[C@@H]3CC4)c(C)nc2c1 [Compound 298] | 99% | 18.6 nM | > 10000 nM | 25% | 47% | > 10000 nM |  |  |  |  |  |  | 
7 | O=C(c1nc2ccccc2o1)N1[C@H]2CC[C@H](c3cc(C(F)F)nc4ncnn34)[C@@H]1CC2 [Compound 304] | 100% | 39.8 nM | 9120 nM | 48% | 45% | > 10000 nM |  |  |  |  |  |  | 
8 | Cc1nc2cccc(C(=O)N3[C@H]4CC[C@H](c5cc(C(F)F)nc6ncnn56)[C@@H]3CC4)c2o1 [Compound 305] | 100% | 87.1 nM | > 10000 nM | 7% | 57% | 7080 nM |  |  |  |  |  |  | 
9 | Cc1nc2cc(C(=O)N3[C@H]4CC[C@H](c5cc(C(F)F)nc6ncnn56)[C@@H]3CC4)ccc2o1 [Compound 306] | 100% |  |  | 71% | 74% |  | 44.7 nM | 4470 nM | 3630 nM |  |  |  | 
10 | O=C(c1cccc2ncccc12)N1[C@H]2CC[C@H](c3cc(C(F)F)nc4ncnn34)[C@@H]1CC2 [Compound 315] | 98% | 112 nM | > 10000 nM | 20% | 47% | 9770 nM |  |  |  |  |  |  | 
11 | O=C(c1cccc2cccnc12)N1[C@H]2CC[C@H](c3cc(C(F)F)nc4ncnn34)[C@@H]1CC2 [Compound 316] | 94% | 257 nM | > 10000 nM | 5% | 14% | > 10000 nM |  |  |  |  |  |  | 
12 | O=C(c1ccnc2ccccc12)N1[C@H]2CC[C@H](c3cc(C(F)F)nc4ncnn34)[C@@H]1CC2 [Compound 317] | 99% |  | > 10000 nM | 15% |  | > 10000 nM |  |  |  | 34 |  |  | 
13 | O=C(c1ccnc2ccccc12)N1[C@H]2CC[C@H](c3cc(C(F)F)nc4ncnn34)[C@@H]1CC2 [Compound 318] |  |  |  |  |  |  |  |  |  | 13 | 89 | 11 | <5
14 | O=C(c1cccc2ccccc12)N1[C@H]2CC[C@H](c3cc(C(F)F)nc4ncnn34)[C@@H]1CC2 [Compound 320] | 100% | 53.7 nM | > 10000 nM | 47% | 62% | 7080 nM |  |  |  |  |  |  | 
15 | C[C@@H]1CCN(C(=O)c2ccc3ccccc3n2)C[C@H]1c1cc(C(F)F)nc2ncnn12 [Compound 323] | 100% | 3.89 nM | 724 nM | 95% | 97% | 224 nM |  |  |  |  |  |  | 
16 | C[C@@H]1CCN(C(=O)c2ccc3cnccc3c2)C[C@H]1c1cc(C(F)F)nc2ncnn12 [Compound 326] | 100% | 2.14 nM | 257 nM | 97% | 99% | 60.3 nM |  |  |  |  |  |  | 
17 | COc1cc(C(=O)N2[C@H]3CC[C@H](c4cc(C(F)F)nc5ncnn45)[C@@H]2CC3)ccc1Cl [Compound 336] | 101% | 18.6 nM | 3240 nM | 78% | 87% | 1910 nM |  |  |  |  |  |  | 
18 | O=C(c1ccc(F)c(F)c1)N1[C@H]2CC[C@H](c3cc(C(F)F)nc4ncnn34)[C@@H]1CC2 [Compound 337] | 99% | 166 nM | > 10000 nM | 43% | 71% | 4570 nM |  |  |  |  |  |  | 
19 | O=C(c1ccc(C(F)(F)F)c(F)c1)N1[C@H]2CC[C@H](c3cc(C(F)F)nc4ncnn34)[C@@H]1CC2 [Compound 338] | 99% | 91.2 nM | 5500 nM | 62% | 70% | 3090 nM |  |  |  |  |  |  | 
20 | O=C(c1ccc(C(F)(F)F)cc1)N1[C@H]2CC[C@H](c3cc(C(F)F)nc4ncnn34)[C@@H]1CC2 [Compound 340] | 100% | 70.8 nM | 4270 nM | 69% | 72% | 3310 nM |  |  |  |  |  |  | 
21 | O=C(c1cc(F)cc(F)c1)N1[C@H]2CC[C@H](c3cc(C(F)F)nc4ncnn34)[C@@H]1CC2 [Compound 341] | 97% | 141 nM | > 10000 nM | 33% | 63% | 5010 nM |  |  |  |  |  |  | 
22 | O=C(c1ccc(OC(F)(F)F)c(F)c1)N1[C@H]2CC[C@H](c3cc(C(F)F)nc4ncnn34)[C@@H]1CC2 [Compound 342] | 100% | 32.4 nM | 4470 nM | 69% | 77% | 2690 nM |  |  |  |  |  |  | 
23 | COc1cc(C(=O)N2[C@H]3CC[C@H](c4cc(C(F)F)nc5ncnn45)[C@@H]2CC3)ccc1F [Compound 343] | 102% | 67.6 nM | > 10000 nM | 44% | 68% | 4570 nM |  |  |  |  |  |  | 
24 | Cc1cc(C(=O)N2[C@H]3CC[C@H](c4cc(C(F)F)nc5ncnn45)[C@@H]2CC3)cc(F)c1F [Compound 344] | 99% | 29.5 nM | 7240 nM | 61% | 80% | 2570 nM |  |  |  |  |  |  | 
25 | O=C(c1ccc(F)c(OC(F)F)c1)N1[C@H]2CC[C@H](c3cc(C(F)F)nc4ncnn34)[C@@H]1CC2 [Compound 345] | 99% | 75.9 nM | 8320 nM | 48% | 72% | 3720 nM |  |  |  |  |  |  | 
26 | CC(C)(C)c1ccc(C(=O)N2[C@H]3CC[C@H](c4cc(C(F)F)nc5ncnn45)[C@@H]2CC3)o1 [Compound 348] | 99% | 33.9 nM | 4470 nM | 70% | 92% | 1290 nM |  |  |  |  |  |  | 
27 | Cc1ccc(C(=O)N2[C@H]3CC[C@H](c4cc(C(F)F)nc5ncnn45)[C@@H]2CC3)s1 [Compound 349] | 102% | 22.4 nM | 4790 nM | 64% | 86% | 1780 nM |  |  |  |  |  |  | 
